Source: patent publication US7105679B2, “Heteroatom containing tetracyclic derivatives as selective estrogen receptor modulators” (priority 2001, dated 2006)

Legend:
[1] = tested on: MCF-7 cells; assay: MCF-7 Cell Proliferation Assay (14C-thymidine, agonist and antagonist mode); type: cell-based; conditions: Homo sapiens, number in brackets = number of tests, NA = no detected activity at test concentration; for EC50: MCF7, agonist mode; for IC50: MCF7, antagonist mode with 10 nM 17β-estradiol
[2] = tested on: Ishikawa cells; assay: Alkaline Phosphatase Assay in Human Endometrial Ishikawa Cells (agonist and antagonist mode); type: cell-based; conditions: Homo sapiens, number in brackets = number of tests, NA = no detected activity at test concentration; for EC50: agonist mode; for IC50: antagonist mode with 10 nM 17β-estradiol
[3] = target: T1, human estrogen receptor α (Homo sapiens, UniProt P03372); assay: Estrogen Receptor α Flash Plate Assay (binding of radiolabeled estrogen); conditions: flash plate binding, 0.5 nM radiolabeled estrogen; number in brackets = No. of determinations; NA = no detected activity at test concentration; read-out: Estrogen Receptor α in μM (No.)
T1 construct: purchased Panvera
T1 sequence (P03372 1-595): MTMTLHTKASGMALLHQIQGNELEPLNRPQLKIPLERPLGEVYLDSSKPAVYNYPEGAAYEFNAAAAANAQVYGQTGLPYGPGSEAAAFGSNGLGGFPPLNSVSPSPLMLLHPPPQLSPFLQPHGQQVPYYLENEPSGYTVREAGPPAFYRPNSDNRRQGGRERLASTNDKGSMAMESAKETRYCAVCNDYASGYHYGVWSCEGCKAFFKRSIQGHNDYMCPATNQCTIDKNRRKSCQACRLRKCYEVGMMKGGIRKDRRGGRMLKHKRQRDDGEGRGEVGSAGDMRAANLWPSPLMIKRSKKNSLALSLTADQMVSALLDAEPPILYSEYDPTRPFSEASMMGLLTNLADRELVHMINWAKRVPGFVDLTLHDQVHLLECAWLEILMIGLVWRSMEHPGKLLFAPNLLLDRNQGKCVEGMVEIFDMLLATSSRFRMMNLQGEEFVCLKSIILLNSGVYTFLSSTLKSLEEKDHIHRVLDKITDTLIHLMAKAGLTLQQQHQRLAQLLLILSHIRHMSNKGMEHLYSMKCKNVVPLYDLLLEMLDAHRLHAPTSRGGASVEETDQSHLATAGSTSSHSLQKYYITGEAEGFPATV

[4] = target: T2, hER-β (Homo sapiens, UniProt Q92731); assay: Estrogen Receptor β Fluorescence Polarization Assay (binding of Fluormone ES2); conditions: fluorescence polarization binding, Fluormone ES2; number in brackets = No. of determinations; NA = no detected activity at test concentration; read-out: Estrogen Receptor β in μM (No.)
T2 construct: purchased Panvera
T2 sequence (Q92731 whole entry): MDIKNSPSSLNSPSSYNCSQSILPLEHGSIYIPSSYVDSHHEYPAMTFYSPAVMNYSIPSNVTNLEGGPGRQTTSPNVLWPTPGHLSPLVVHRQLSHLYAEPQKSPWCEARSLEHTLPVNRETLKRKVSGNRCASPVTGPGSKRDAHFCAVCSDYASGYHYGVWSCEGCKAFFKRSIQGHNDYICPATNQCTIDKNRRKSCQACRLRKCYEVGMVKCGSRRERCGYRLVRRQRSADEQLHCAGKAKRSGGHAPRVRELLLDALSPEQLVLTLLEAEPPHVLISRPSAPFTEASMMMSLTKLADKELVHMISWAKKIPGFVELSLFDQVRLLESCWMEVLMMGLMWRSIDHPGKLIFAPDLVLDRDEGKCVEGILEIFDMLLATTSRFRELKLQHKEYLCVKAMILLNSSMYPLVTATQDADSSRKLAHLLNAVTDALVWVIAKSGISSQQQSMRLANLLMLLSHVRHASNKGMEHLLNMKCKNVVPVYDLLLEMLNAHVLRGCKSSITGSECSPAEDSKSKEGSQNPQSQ
Description: This assay monitors binding of a fluorescent analog of estrogen (Fluormone ES2, Panvera) to the estrogen receptor. Plates are read in a fluorometer that can be set to polarization mode. A decrease in […] relative to vehicle control is an indication of binding of a compound to the receptor.
It is crucial to avoid introduction of air bubbles into the reaction in each well of the 96 well plate throughout this procedure. (Bubbles on the surface of the reaction disrupt light flow, affecting the polarization reading.) However, it is also crucial to effectively mix the reaction components upon addition to the well.
On ice, a 2× standard mixture of Assay Buffer (Panvera), 10 nM DTT and 40 nM ES2 was prepared. On ice, a 2× reaction mixture of Assay Buffer (Panvera), and 20 nM hER-β (Panvera) and 40 nM ES2 was also prepared.
Dilutions of test compound were prepared in 30% (v/v) dimethyl sulfoxide/50 mM HEPES, pH 7.5. At this point, the dilutions were 40× the final required concentration.
The standard mixture at 50 μL was then added to each well. The reaction mixture at 48 μL was added to all wells. The compound dilution at 2.5 μL was added to the appropriate wells. The reaction mixtures were mixed using a manual pipette, a roll of aluminum foil adhesive cover was placed on the plate and the plate incubated at room temperature for 1 hour.

melting point [°C]	EC50 [1] [nM]	IC50 [1] [nM]	EC50 [2] [nM]	IC50 [2] [nM]	IC50 [3] [µM]	IC50 [4] [µM]	SMILES
> 350	1200	> 10000	130	> 10000	0.505	0.061	O=c1oc2cc(O)ccc2c2c1-c1ccc(O)cc1OC2 [Compound 1, 2,8-Dihydroxy-11H-chromeno[4,3-c]chromen-5-one]
200 to 201	> 10000	> 10000	> 10000	> 10000	–	–	COc1ccc2c(c1)OCc1c-2c(=O)oc2cc(OC)ccc12 [Compound 2, 2,8-DiMethoxy-11H-chromeno[4,3-c]chromen-5-one]
259 to 260	–	–	–	–	–	–	O=c1oc2cc(F)ccc2c2c1-c1ccc(O)cc1OC2 [Compound 37, 8-Fluoro-2-hydroxy-11H-chromeno[4,3-c]chromen-5-one]

The remaining lines, values behind:

SMILES	melting point [°C]	EC50 [1] [nM]	IC50 [1] [nM]	EC50 [2] [nM]	IC50 [2] [nM]	IC50 [3] [µM]	IC50 [4] [µM]
CC(C)(C)[Si](C)(C)Oc1ccc2c(c1)OCc1c-2c(=O)oc2cc(O[Si](C)(C)C(C)(C)C)ccc12	150 to 151	–	–	–	–	–	–
CC(C)(C)[Si](C)(C)Oc1ccc2c(c1)OC(O)C1=C2COc2cc(O[Si](C)(C)C(C)(C)C)ccc21 (centres unmarked)	188 to 190	–	–	–	–	–	–
CC(C)(C)[Si](C)(C)Oc1ccc2c(c1)OCc1c-2c(=O)oc2cc(F)ccc12	197 to 198	–	–	–	–	–	–
CC(C)(C)[Si](C)(C)Oc1ccc2c(c1)OCC1=C2C(O)Oc2cc(F)ccc21 (centres unmarked)	166 to 167	–	–	–	–	–	–
CC(C)(C)C(=O)Oc1ccc2c(c1)OC(C)(c1ccc(OCCCN3CCCCC3)cc1)C1=C2COc2cc(OC(=O)C(C)(C)C)ccc21 (centres unmarked) [Compound 43, 2,2-Dimethyl-propionic acid 8-(2,2-dimethyl-propionyloxy)-11-methyl-11-[4-(3-piperidin-1-yl-propoxy)-phenyl]-5,11-dihydro-chromeno[4,3-c]chromen-2-yl ester]	–	> 10000	> 1000	> 10000	1600	0.62	0.165
